Experimental data as given in publication PMC10004634 (PLOS ONE, 2023).
Like-named read-outs stand apart in the source and are kept apart here.

Legend:
Test in all cases: biochemical
Parameters in all cases: KINOMEscan scanMAX competition binding, DNA-tagged kinases, qPCR read-out, percent control at 300 nM
LATS1 = target: T1, LATS1 (Homo sapiens, UniProt O95835)
T1 sequence (O95835 1-1130): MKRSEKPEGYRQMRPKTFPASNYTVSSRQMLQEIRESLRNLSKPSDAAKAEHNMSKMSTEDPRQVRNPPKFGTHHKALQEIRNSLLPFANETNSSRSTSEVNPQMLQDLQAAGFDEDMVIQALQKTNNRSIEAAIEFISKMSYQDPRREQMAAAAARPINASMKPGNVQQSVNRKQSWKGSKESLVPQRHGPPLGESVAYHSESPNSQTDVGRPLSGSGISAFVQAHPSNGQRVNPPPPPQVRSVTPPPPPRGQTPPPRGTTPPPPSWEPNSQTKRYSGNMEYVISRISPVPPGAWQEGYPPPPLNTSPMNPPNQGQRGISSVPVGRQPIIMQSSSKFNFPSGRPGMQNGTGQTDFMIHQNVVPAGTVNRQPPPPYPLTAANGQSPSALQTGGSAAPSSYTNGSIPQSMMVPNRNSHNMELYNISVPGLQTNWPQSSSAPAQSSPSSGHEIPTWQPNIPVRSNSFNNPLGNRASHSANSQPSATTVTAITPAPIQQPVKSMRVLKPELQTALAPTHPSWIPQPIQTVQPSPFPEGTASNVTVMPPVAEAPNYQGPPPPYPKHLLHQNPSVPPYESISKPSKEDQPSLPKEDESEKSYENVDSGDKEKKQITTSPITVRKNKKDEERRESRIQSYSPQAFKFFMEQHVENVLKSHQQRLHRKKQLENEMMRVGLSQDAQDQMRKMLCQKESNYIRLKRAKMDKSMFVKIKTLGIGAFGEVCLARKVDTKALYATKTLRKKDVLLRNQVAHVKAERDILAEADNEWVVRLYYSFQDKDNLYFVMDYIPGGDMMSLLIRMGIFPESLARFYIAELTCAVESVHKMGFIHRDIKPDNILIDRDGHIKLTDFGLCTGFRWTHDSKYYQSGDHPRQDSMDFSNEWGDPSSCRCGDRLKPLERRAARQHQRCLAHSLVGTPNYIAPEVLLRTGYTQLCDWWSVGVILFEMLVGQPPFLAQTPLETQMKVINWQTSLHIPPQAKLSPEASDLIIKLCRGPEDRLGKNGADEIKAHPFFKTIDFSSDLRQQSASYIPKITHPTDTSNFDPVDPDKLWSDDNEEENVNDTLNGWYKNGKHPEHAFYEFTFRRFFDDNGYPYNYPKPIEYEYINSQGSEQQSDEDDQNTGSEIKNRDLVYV

TTK = target: T2, TTK (Homo sapiens, UniProt P33981)
T2 sequence (P33981 1-857): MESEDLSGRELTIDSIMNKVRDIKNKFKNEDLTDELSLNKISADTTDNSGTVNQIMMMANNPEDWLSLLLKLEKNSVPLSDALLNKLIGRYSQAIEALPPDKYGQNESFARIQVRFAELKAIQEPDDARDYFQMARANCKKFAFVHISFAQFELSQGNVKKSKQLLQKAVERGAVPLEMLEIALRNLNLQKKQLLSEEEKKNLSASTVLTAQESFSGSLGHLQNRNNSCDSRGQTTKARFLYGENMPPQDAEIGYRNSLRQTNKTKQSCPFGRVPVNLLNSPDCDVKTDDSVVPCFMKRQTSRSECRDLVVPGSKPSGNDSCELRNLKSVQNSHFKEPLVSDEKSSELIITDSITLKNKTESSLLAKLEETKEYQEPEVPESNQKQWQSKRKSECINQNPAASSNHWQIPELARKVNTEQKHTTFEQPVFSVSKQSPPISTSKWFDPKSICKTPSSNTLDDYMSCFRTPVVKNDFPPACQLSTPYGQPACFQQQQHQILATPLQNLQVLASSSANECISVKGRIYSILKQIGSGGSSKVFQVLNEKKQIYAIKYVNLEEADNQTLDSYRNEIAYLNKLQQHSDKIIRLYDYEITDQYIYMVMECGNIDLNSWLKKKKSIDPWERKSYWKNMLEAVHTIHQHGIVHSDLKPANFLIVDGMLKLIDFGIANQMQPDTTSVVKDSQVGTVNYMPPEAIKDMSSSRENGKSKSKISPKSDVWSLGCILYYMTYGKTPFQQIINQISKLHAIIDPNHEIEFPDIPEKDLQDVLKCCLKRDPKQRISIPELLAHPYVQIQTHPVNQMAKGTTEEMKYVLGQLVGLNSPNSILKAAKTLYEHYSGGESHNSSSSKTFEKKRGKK

CSK = CSK (Homo sapiens, UniProt P41240)
TNK2 = TNK2 (Homo sapiens, UniProt Q07912)
[1] = read-out: Percent control / Acalabrutinib
[2] = read-out: Percent control / Ibrutinib
[3] = read-out: Percent control / Tirabrutinib
[4] = read-out: Percent control / Zanubrutinib

TNK2, sequence (Q07912 whole entry): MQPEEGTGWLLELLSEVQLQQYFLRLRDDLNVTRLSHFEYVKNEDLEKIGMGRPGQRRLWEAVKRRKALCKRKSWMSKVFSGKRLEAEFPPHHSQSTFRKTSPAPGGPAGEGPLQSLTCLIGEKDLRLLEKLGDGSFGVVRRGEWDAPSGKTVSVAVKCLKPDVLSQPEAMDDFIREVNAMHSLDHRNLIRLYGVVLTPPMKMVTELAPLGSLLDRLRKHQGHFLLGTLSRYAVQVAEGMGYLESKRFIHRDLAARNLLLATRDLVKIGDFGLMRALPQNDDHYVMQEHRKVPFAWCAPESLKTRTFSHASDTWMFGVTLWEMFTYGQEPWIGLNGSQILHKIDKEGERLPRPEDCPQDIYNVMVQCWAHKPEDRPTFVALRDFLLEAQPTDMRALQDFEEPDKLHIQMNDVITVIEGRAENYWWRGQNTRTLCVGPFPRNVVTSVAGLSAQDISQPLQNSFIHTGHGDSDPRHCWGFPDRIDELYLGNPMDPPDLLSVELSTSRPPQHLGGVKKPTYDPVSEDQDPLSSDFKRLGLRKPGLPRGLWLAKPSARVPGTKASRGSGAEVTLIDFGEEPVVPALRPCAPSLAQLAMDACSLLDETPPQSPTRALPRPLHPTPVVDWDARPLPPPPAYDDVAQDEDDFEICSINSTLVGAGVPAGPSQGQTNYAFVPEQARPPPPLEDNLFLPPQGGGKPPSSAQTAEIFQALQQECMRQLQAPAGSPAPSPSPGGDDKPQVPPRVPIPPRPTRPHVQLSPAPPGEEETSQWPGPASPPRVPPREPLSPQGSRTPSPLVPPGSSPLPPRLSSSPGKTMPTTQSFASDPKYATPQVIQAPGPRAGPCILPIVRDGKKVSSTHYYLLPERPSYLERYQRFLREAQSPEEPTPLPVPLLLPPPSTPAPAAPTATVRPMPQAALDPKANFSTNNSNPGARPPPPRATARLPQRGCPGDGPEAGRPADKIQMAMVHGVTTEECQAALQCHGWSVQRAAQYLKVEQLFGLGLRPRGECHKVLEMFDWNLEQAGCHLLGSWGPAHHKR
CSK, sequence (P41240 whole entry): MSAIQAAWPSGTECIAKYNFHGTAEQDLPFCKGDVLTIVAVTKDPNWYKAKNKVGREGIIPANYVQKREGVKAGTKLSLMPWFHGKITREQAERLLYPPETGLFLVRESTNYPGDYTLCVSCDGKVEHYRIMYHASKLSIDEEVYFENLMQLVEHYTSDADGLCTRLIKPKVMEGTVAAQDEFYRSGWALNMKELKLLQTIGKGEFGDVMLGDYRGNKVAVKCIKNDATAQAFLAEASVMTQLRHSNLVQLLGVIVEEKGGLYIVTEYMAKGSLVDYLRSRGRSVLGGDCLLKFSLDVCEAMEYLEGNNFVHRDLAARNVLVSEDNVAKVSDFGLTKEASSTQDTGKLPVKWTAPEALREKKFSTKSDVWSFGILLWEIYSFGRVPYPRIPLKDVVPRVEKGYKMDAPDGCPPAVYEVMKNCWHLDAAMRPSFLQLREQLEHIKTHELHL

Compound: CC#CC(=O)N1CCC[C@H]1c1nc(-c2ccc(C(=O)Nc3ccccn3)cc2)c2c(N)nccn12 [Acalabrutinib]
- remaining binding at 0.3 µM (LATS1; [1]): 79%
- remaining binding at 0.3 µM (TTK; [1]): 64%
- remaining binding at 0.3 µM (CSK; [1]): 85%

Compound: C=CC(=O)N1CCC[C@@H](n2nc(-c3ccc(Oc4ccccc4)cc3)c3c(N)ncnc32)C1 [Ibrutinib]
- remaining binding at 0.3 µM (LATS1; [2]): 83%
- remaining binding at 0.3 µM (TNK2; [2]): 48%
- remaining binding at 0.3 µM (TTK; [2]): 93%
- remaining binding at 0.3 µM (CSK; [2]): 1.4%

Compound: CC#CC(=O)N1CC[C@@H](n2c(=O)n(-c3ccc(Oc4ccccc4)cc3)c3c(N)ncnc32)C1 [Tirabrutinib]
- remaining binding at 0.3 µM (TNK2; [3]): 93%
- remaining binding at 0.3 µM (CSK; [3]): 47%

Compound: C=CC(=O)N1CCC([C@@H]2CCNc3c(C(N)=O)c(-c4ccc(Oc5ccccc5)cc4)nn32)CC1 [Zanubrutinib]
- remaining binding at 0.3 µM (LATS1; [4]): 72%
- remaining binding at 0.3 µM (TNK2; [4]): 90%
- remaining binding at 0.3 µM (TTK; [4]): 94%
